This note sets out measurements from ChEMBL document CHEMBL1157484, “Protein subtype-targeting through ligand epimerization: talose-selectivity of galectin-4 and galectin-8” (Bioorg Med Chem Lett, 2008).

For assay [1], the target named is Galectin-3 (Homo sapiens, UniProt P17931). As to the kind of experiment: Binding affinity to human galectin3 by fluorescence polarization assay. On the technique in general: Polarisation of emitted light reports the rotation of a fluorescent probe.
Assay [2] in a line: Binding affinity to human galectin4N by fluorescence polarization assay.
The nature of assay [3]: Binding affinity to human galectin9N by fluorescence polarization assay.
The target of assay [4] is T1, Galectin-2 (Homo sapiens, UniProt P05162).
T1 sequence (P05162 whole entry): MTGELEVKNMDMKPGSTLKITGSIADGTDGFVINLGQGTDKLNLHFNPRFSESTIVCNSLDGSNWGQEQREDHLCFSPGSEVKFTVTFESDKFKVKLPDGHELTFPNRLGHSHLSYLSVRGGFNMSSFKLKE
As to the kind of experiment: Binding affinity to human galectin2 by fluorescence polarization assay.

A short description of assay [5]: Binding affinity to human galectin4C by fluorescence polarization assay.
Assay [6] addresses Galectin-1 (Homo sapiens, UniProt P09382). As to the kind of experiment: Binding affinity to human galectin1 by fluorescence polarization assay.
Assay [7] is described as follows: Binding affinity to human galectin8N by fluorescence polarization assay.

Chain of Galectin-1 (P09382 whole entry): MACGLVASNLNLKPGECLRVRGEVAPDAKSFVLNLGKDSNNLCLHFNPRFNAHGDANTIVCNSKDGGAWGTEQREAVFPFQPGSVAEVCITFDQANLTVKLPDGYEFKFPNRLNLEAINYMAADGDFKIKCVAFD
Chain of Galectin-3 (P17931 whole entry): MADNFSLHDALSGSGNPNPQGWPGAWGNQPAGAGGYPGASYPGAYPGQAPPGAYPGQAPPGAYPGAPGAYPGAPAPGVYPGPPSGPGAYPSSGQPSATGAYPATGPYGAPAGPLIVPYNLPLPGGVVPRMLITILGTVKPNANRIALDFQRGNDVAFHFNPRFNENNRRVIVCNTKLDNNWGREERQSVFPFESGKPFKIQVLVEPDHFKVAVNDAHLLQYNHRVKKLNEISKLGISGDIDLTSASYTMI

The Kd is the free concentration of one partner at which half of the binding sites on the other are occupied at equilibrium, for simple one-to-one binding. Turning to `CO[C@@H]1O[C@H](CO)[C@H](O)[C@H](OC(=O)c2ccc(C)cc2)[C@@H]1O[PH](=O)O`, the Kd is 2.3 mM in assay [1]; greater than 4 mM in assay [2]; greater than 4 mM in assay [3]; 1.5 mM in assay [4]; greater than 4 mM in assay [5]; greater than 4 mM in assay [6].
Consider `CO[C@@H]1O[C@H](CO)[C@H](O)[C@H](OC(=O)c2ccc(C)cc2)[C@@H]1OS(=O)(=O)O`, for which the Kd in assay [1] was 0.25 mM; in assay [2] it was greater than 4 mM; in assay [3], greater than 4 mM; in assay [4] it was greater than 4 mM; in assay [7], 1.1 mM; in assay [5] it was 3 mM. The compound also displayed a dissociation constant Kd in assay [6] greater than 4 mM.
For `CO[C@@H]1O[C@H](CO)[C@H](O)[C@H](O)[C@H]1O`, the dissociation constant (Kd) in assay [2] is 6.6 mM; in assay [3], 1.2 mM; in assay [4] it was 13 mM; in assay [7] it was 6.3 mM; in assay [5], greater than 10 mM.
Regarding `CO[C@@H]1O[C@H](CO)[C@H](O)[C@H](OC(=O)c2ccc(C)cc2)[C@@H]1OP(=O)(O)OC`, the equilibrium dissociation constant (Kd) in assay [1] is 0.6 mM; in assay [2], greater than 4 mM; in assay [3] it was greater than 4 mM; in assay [4] it was greater than 4 mM; in assay [7], 1 mM; in assay [5] it was greater than 4 mM. This compound came in with a Kd in assay [6] greater than 4 mM.
For `CO[C@@H]1O[C@H](CO)[C@H](O)[C@H](O)[C@@H]1O`, the Kd in assay [2] is greater than 10 mM; in assay [3], 4.6 mM; in assay [4], greater than 10 mM; in assay [7], 1.5 mM; in assay [5] it was 10 mM.
As to `CO[C@@H]1O[C@H](CO)[C@H](O)[C@H](OC(=O)c2ccc(C)cc2)[C@@H]1O`, the Kd in assay [1] was 1.4 mM; in assay [2], greater than 4 mM; in assay [3], greater than 4 mM; in assay [7], 0.4 mM; in assay [6] it was 2 mM.
Turning to `CO[C@@H]1O[C@H](CO)[C@H](O)[C@H](OC(=O)c2ccc(C)cc2)[C@@H]1OC(=O)c1ccc(C)cc1`, the dissociation constant (Kd) in assay [1] is 0.7 mM; in assay [2], greater than 4 mM; in assay [3], greater than 4 mM; in assay [4], greater than 4 mM; in assay [7] it was 3.6 mM; in assay [5] it was 0.16 mM. Moreover, in assay [6], the Kd was determined as 1.8 mM.
In the case of `CO[C@@H]1O[C@H](CO)[C@H](O)[C@H](OC(=O)c2ccc(C)cc2)[C@@H]1OC(C)=O`, the dissociation constant (Kd) was 0.55 mM in assay [1]; greater than 4 mM in assay [2]; greater than 4 mM in assay [3]; greater than 4 mM in assay [4]; greater than 4 mM in assay [7]; 1.6 mM in assay [5]. This compound gave a dissociation constant Kd in assay [6] greater than 4 mM.
